Data set [1] relates to mouse growth hormone receptor mRNA. The data set is described as follows: Inhibition of mouse growth hormone receptor mRNA levels in b.END cells, quantitative real-time PCR, incl. dose-response. Conditions: averages from three experiments. It is filed as cell-based. The procedure: The mouse brain endothelial cell line b.END was obtained from Dr. Werner Risau at the Max Plank Instititute (Bad Nauheim, Germany). b.END cells were routinely cultured in DMEM, high glucose (Gibco/Life Technologies, Gaithersburg, Md.) supplemented with 10% fetal calf serum (Gibco/Life Technologies, Gaithersburg, Md.). Cells were routinely passaged by trypsinization and dilution when they reached 90% confluence. Cells were seeded into 96-well plates (Falcon-Primaria #3872) at a density of 3000 cells/well for use in RT-PCR analysis.
(§1) When cells reached 65-75% confluency, they were treated with oligonucleotide. For cells grown in 96-well plates, wells were washed once with 100 μL OPTI-MEM™-1 reduced-serum medium (Invitrogen Corporation, Carlsbad, Calif.) and then treated with 130 μL of OPTI-MEM™-1 containing 3.75 μg/mL LIPOFECTIN™ (Invitrogen Corporation, Carlsbad, Calif.) and the desired concentration of oligonucleotide. Cells are treated and data are obtained in triplicate. After 4-7 hours of treatment at 37° C., the medium was replaced with fresh medium. Cells were harvested 16-24 hours after oligonucleotide treatment.
(§2) Total RNA was isolated using an RNEASY 96™ kit and buffers purchased from Qiagen Inc. (Valencia, Calif.) following the manufacturer's recommended procedures. Briefly, for cells grown on 96-well plates, growth medium was removed from the cells and each well was washed with 200 μL cold PBS. 150 μL Buffer RLT was added to each well and the plate vigorously agitated for 20 seconds. 150 μL of 70% ethanol was then added to each well and the contents mixed by pipetting three times up and down. The samples were then transferred to the RNEASY 96™ well plate attached to a QIAVAC™ manifold fitted with a waste collection tray and attached to a vacuum source. Vacuum was applied for 1 minute. 500 μL of Buffer RW1 was added to each well of the RNEASY 96™ plate and incubated for 15 minutes and the vacuum was again applied for 1 minute. An additional 500 μL of Buffer RW1 was added to each well of the RNEASY 96™ plate and the vacuum was applied for 2 minutes. 1 mL of Buffer RPE was then added to each well of the RNEASY 96™ plate and the vacuum applied for a period of 90 seconds. The Buffer RPE wash was then repeated and the vacuum was applied for an additional 3 minutes. The plate was then removed from the QIAVAC™ manifold and blotted dry on paper towels. The plate was then re-attached to the QIAVAC™ manifold fitted with a collection tube rack containing 1.2 mL collection tubes. RNA was then eluted by pipetting 140 μL of RNAse free water into each well, incubating 1 minute, and then applying the vacuum for 3 minutes.
(§3) Quantitation of growth hormone receptor mRNA levels was accomplished by real-time quantitative PCR using the ABI PRISM™ 7600, 7700, or 7900 Sequence Detection System (PE-Applied Biosystems, Foster City, Calif.) according to manufacturer's instructions. This is a closed-tube, non-gel-based, fluorescence detection system which allows high-throughput quantitation of polymerase chain reaction (PCR) products in real-time. As opposed to standard PCR in which amplification products are quantitated after the PCR is completed, products in real-time quantitative PCR are quantitated as they accumulate. This is accomplished by including in the PCR reaction an oligonucleotide probe that anneals specifically between the forward and reverse PCR primers, and contains two fluorescent dyes. A reporter dye (e.g., FAM or JOE, obtained from either PE-Applied Biosystems, Foster City, Calif., Operon Technologies Inc., Alameda, Calif. or Integrated DNA Technologies Inc., Coralville, Iowa) is attached to the 5′ end of the probe and a quencher dye (e.g., TAMRA, obtained from either PE-Applied Biosystems, Foster City, Calif., Operon Technologies Inc., Alameda, Calif. or Integrated DNA Technologies Inc., Coralville, Iowa) is attached to the 3′ end of the probe. […]
On the technique in general: Real-time PCR tracks product formation cycle by cycle.

In data set [2] the test system is human growth hormone receptor mRNA. The data set is described as follows: Inhibition of human growth hormone receptor mRNA levels in MCF7 cells, quantitative real-time PCR. Type of data set: cell-based. More on the design: concentration or dose not given beside the values. To be noted: averages from three experiments. The procedure:
The human breast carcinoma cell line MCF-7 was obtained from the American Type Culture Collection (Manassas, Va.). MCF-7 cells were routinely cultured in DMEM low glucose (Gibco/Life Technologies, Gaithersburg, Md.) supplemented with 10% fetal calf serum (Gibco/Life Technologies, Gaithersburg, Md.). Cells were routinely passaged by trypsinization and dilution when they reached 90% confluence. Cells were seeded into 96-well plates (Falcon-Primaria #3872) at a density of 7000 cells/well for use in RT-PCR analysis.
as §1, §2
as §3, with “probe. When the probe and dyes are intact, reporter dye emission is quenched by the proximity of the 3′ quencher dye.” for “probe.”

In the oligonucleotide strings, read from the 5' end, every base follows the letter of its sugar. An asterisk marks phosphorothioate; unmarked linkages are phosphodiester. Other units and linkages are bracketed, terminal groups are in braces. A string of capitals states the bases alone. e = 2'-O-(2-methoxyethyl) (MOE); [5mC] = 5-methylcytosine; d = 2'-deoxy (DNA)

As to “227443 (antisense eT*eG*e[5mC]*eT*eT*dG*dG*d[5mC]*dA*dG*d[5mC]*dT*d[5mC]*dG*dT*eG*eG*eG*eT*eT) [compound 227443]”, in data set [1], the “% INHIB of mouse growth hormone receptor mRNA levels” value was 0%. With “227444 (antisense eA*eT*eG*eG*e[5mC]*dT*dG*d[5mC]*dG*d[5mC]*d[5mC]*dT*dG*d[5mC]*dT*eT*eG*eG*e[5mC]*eA) [compound 227444]”, in data set [1], the “% INHIB of mouse growth hormone receptor mRNA levels” value was 53%. In the case of “227445 (antisense eT*eA*e[5mC]*e[5mC]*eT*dG*dA*dG*dA*d[5mC]*d[5mC]*dT*d[5mC]*dG*dG*eA*eG*eT*eT*eT) [compound 227445]”, the “% INHIB of mouse growth hormone receptor mRNA levels” value in data set [1] is recorded as 69%. Still for that read-out and setting: for “227446 (antisense eA*e[5mC]*eA*eA*eA*dG*dA*dT*d[5mC]*d[5mC]*dA*dT*dA*d[5mC]*d[5mC]*eT*eG*eA*eG*eA) [compound 227446]” the value was 87%. On the same count and under the same terms, to “227447 (antisense eG*e[5mC]*eT*eG*eG*dT*dG*dT*dA*dG*d[5mC]*d[5mC]*dT*d[5mC]*dA*e[5mC]*eT*eT*e[5mC]*e[5mC]) [compound 227447]” belongs 77%; to “227448 (antisense eT*eT*eT*eG*e[5mC]*d[5mC]*dA*dA*dG*dA*dG*dT*dA*dG*d[5mC]*eT*eG*eG*eT*eG) [compound 227448]”, 60%. Still for that read-out and setting: for “227449 (antisense eA*e[5mC]*eG*eA*e[5mC]*dA*d[5mC]*dT*dT*dG*dG*dT*dG*dA*dA*eT*e[5mC]*eG*eA*eG) [compound 227449]” the value was 69%; for “227450 (antisense eT*eG*eG*e[5mC]*eT*dT*dT*d[5mC]*d[5mC]*d[5mC]*dT*dT*dT*dT*dA*eG*e[5mC]*eA*eT*eA) [compound 227450]”, 71%; for “227451 (antisense eA*eT*eG*eA*eG*d[5mC]*dA*dA*dT*dT*d[5mC]*dT*dT*dG*d[5mC]*eA*eG*e[5mC]*eT*eT) [compound 227451]”, 49%. As to “227454 (antisense eA*eG*eT*eT*eG*dA*dA*dG*dT*dA*dA*d[5mC]*dA*dG*d[5mC]*eT*eG*eT*eT*eT) [compound 227454]”, the “% INHIB of mouse growth hormone receptor mRNA levels” value in data set [1] was determined as 69%. Still for that read-out and setting: for “227455 (antisense eA*eG*eT*eA*eG*dG*dG*dT*dA*dT*d[5mC]*d[5mC]*dA*dA*dA*eT*eG*eG*eA*eG) [compound 227455]” the value was 43%; for “227456 (antisense eG*eT*e[5mC]*e[5mC]*eA*dG*dT*dT*dG*dA*dG*dG*d[5mC]*d[5mC]*dA*eA*eT*eG*eG*eG) [compound 227456]”, 97%; for “227457 (antisense eG*eA*eA*eT*eT*dA*dT*d[5mC]*d[5mC]*dA*dT*d[5mC]*d[5mC]*d[5mC]*dT*eT*e[5mC]*eA*eG*eA) [compound 227457]”, 67%. On the same count and under the same terms, to “227458 (antisense eG*eT*eA*e[5mC]*eT*dG*dA*dA*dT*dT*dT*d[5mC]*dA*dT*dA*e[5mC]*eT*e[5mC]*e[5mC]*eA) [compound 227458]” belongs 75%; to “227459 (antisense e[5mC]*eT*eG*eA*eA*d[5mC]*dT*d[5mC]*dG*d[5mC]*dT*dG*dT*dA*d[5mC]*eT*eT*eT*eT*e[5mC]) [compound 227459]”, 60%. Still for that read-out and setting: for “227460 (antisense eA*eA*e[5mC]*eT*eG*dG*dA*dT*dA*dT*d[5mC]*dT*dT*d[5mC]*dT*eT*e[5mC]*eA*e[5mC]*eA) [compound 227460]” the value was 43%; for “227461 (antisense eT*eG*e[5mC]*eT*eA*d[5mC]*dT*d[5mC]*d[5mC]*dA*dA*dA*dT*dA*dT*eT*e[5mC]*e[5mC]*eA*eA) [compound 227461]”, 75%; for “227462 (antisense eG*e[5mC]*eT*eT*eT*dG*dA*dA*dA*dA*dT*dA*dT*dA*dA*e[5mC]*eT*eA*e[5mC]*eA) [compound 227462]”, 31%.

Regarding “272352 (antisense e[5mC]*e[5mC]*eA*eA*eA*dA*dT*dG*dA*d[5mC]*dA*dT*dT*d[5mC]*dT*eG*eA*eG*eA*e[5mC]) [compound 272352]”, the “% INHIB of human growth hormone receptor mRNA levels” value in data set [2] is recorded as 77%. Consider “272353 (antisense eA*eT*eA*eA*eT*dG*dG*d[5mC]*dT*dT*dA*dT*dG*dT*dG*eG*e[5mC]*e[5mC]*eA*e[5mC]) [compound 272353]”, for which the “% INHIB of human growth hormone receptor mRNA levels” value in data set [2] stood at 72%.

Take “272354 (antisense eA*eG*eT*eT*eA*dT*dG*dT*dG*dA*d[5mC]*d[5mC]*d[5mC]*dT*dG*eA*eT*eT*eG*eA) [compound 272354]”: the “% INHIB of human growth hormone receptor mRNA levels” value in data set [2] stood at 65%. As for “272355 (antisense eT*eT*eG*eA*eG*dT*dG*dT*dT*d[5mC]*d[5mC]*dT*dA*dA*dA*eA*eT*eG*eA*eA) [compound 272355]”, in data set [2], the “% INHIB of human growth hormone receptor mRNA levels” value was found to be 24%. Same read-out and setting: to “272356 (antisense eA*eT*eG*eG*eA*dG*dG*d[5mC]*dT*dG*dG*dA*dG*dG*dT*eT*e[5mC]*eA*eA*eA) [compound 272356]” belongs 63%; to “272357 (antisense eT*eA*eG*eG*eG*dT*d[5mC]*d[5mC]*dA*dT*d[5mC]*dT*dT*dT*d[5mC]*eA*eA*eG*eA*e[5mC]) [compound 272357]”, 62%; to “272358 (antisense eT*e[5mC]*eT*e[5mC]*e[5mC]*dA*dG*dA*dT*dA*dG*dA*dA*dT*d[5mC]*eT*eA*eA*eA*e[5mC]) [compound 272358]”, 53%. Turning to “272359 (antisense eT*e[5mC]*e[5mC]*eA*eA*dA*dT*dA*dT*dT*d[5mC]*dT*dG*dG*dT*eA*e[5mC]*eT*eT*eT) [compound 272359]”, the “% INHIB of human growth hormone receptor mRNA levels” value in data set [2] was 72%. As for “272360 (antisense eT*eA*eT*eT*eA*dG*dT*dT*dA*d[5mC]*d[5mC]*dT*dT*dG*dA*eG*eG*eA*eG*eA) [compound 272360]”, the “% INHIB of human growth hormone receptor mRNA levels” value in data set [2] came to 0%. Still for that read-out and setting: to “272361 (antisense eA*eT*eT*eT*eT*d[5mC]*d[5mC]*dT*dT*d[5mC]*d[5mC]*dT*dA*dG*dA*eA*eA*eA*eT*eA) [compound 272361]” belongs 10%.

Values taken from patent publication US9988635B2, “Modulation of growth hormone receptor expression and insulin-like growth factor expression” (Antisense Therapeutics Limited, priority 2003, dated 2018).
